Source: PubChem BioAssay (NCI)
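Values below derive from 48-hour exposures of cells grown in 96-well plates, with endpoints linearly interpolated between the two concentrations bracketing the appropriate inhibition level. The concentration for 50% growth inhibition is given as GI50. Definition used: TGI = concentration required for complete inhibition of growth.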

Experiments:
Experiment in all cases: growth of human tumour cells (NCI), 48 h
IGROV1 ovarian = test system: IGROV1 ovarian
PC-3 prostate = test system: PC-3 prostate
DU-145 prostate = test system: DU-145 prostate
EKVX NSCLC = test system: EKVX NSCLC
LOX IMVI melanoma = test system: LOX IMVI melanoma
KM12 colon = test system: KM12 colon
SF-539 CNS = test system: SF-539 CNS
CCRF-CEM leukemia = test system: CCRF-CEM leukemia
NCI-H23 lung = test system: NCI-H23 lung
MALME-3M melanoma = test system: MALME-3M melanoma
786-0 renal = test system: 786-0 renal
UO-31 renal = test system: UO-31 renal
MDA-MB-231 breast = test system: MDA-MB-231 breast
HOP-62 NSCLC = test system: HOP-62 NSCLC
M14 melanoma = test system: M14 melanoma
UACC-62 melanoma = test system: UACC-62 melanoma
MCF7 breast = test system: MCF7 breast
COLO 205 colon = test system: COLO 205 colon
NCI-H226 lung = test system: NCI-H226 lung
HOP-92 NSCLC = test system: HOP-92 NSCLC
SR leukemia = test system: SR leukemia
UACC-257 melanoma = test system: UACC-257 melanoma
SK-OV-3 ovarian = test system: SK-OV-3 ovarian
A549 NSCLC = test system: A549 NSCLC
HT29 colon = test system: HT29 colon
HCC-2998 colon = test system: HCC-2998 colon
A498 renal = test system: A498 renal
BT-549 breast = test system: BT-549 breast
NCI-H460 lung = test system: NCI-H460 lung
MDA-MB-435 = test system: MDA-MB-435
TK-10 renal = test system: TK-10 renal
RXF 393 renal = test system: RXF 393 renal
ACHN renal = test system: ACHN renal
NCI-H522 lung = test system: NCI-H522 lung
MOLT-4 leukemia = test system: MOLT-4 leukemia
MDA-MB-468 breast = test system: MDA-MB-468 breast
T-47D breast = test system: T-47D breast
HS 578T breast = test system: HS 578T breast
CAKI-1 renal = test system: CAKI-1 renal
RPMI-8226 leukemia = test system: RPMI-8226 leukemia
SF-295 CNS = test system: SF-295 CNS
HCT-15 colon = test system: HCT-15 colon
SK-MEL-2 melanoma = test system: SK-MEL-2 melanoma
OVCAR-8 ovarian = test system: OVCAR-8 ovarian
SNB-19 CNS = test system: SNB-19 CNS
SK-MEL-28 melanoma = test system: SK-MEL-28 melanoma
K-562 leukemia = test system: K-562 leukemia
SF-268 CNS = test system: SF-268 CNS
OVCAR-4 ovarian = test system: OVCAR-4 ovarian
U251 CNS = test system: U251 CNS
OVCAR-3 ovarian = test system: OVCAR-3 ovarian
HL-60(TB) leukemia = test system: HL-60(TB) leukemia
HCT-116 colon = test system: HCT-116 colon
SW-620 colon = test system: SW-620 colon
OVCAR-5 ovarian = test system: OVCAR-5 ovarian
SN12C renal = test system: SN12C renal
SK-MEL-5 melanoma = test system: SK-MEL-5 melanoma

Cn1cc(-c2cc(N)n3nc(-c4c[nH]c5ccc(F)cc45)cc3n2)c2cc(Br)cnc21
GI50 (IGROV1 ovarian): 14.3 µM
TGI (IGROV1 ovarian): > 100 µM
GI50 (PC-3 prostate): 11.4 µM
TGI (PC-3 prostate): > 100 µM
GI50 (DU-145 prostate): 80.8 µM
TGI (DU-145 prostate): > 100 µM
GI50 (EKVX NSCLC): > 100 µM
TGI (EKVX NSCLC): > 100 µM
GI50 (LOX IMVI melanoma): 1.96 µM
TGI (LOX IMVI melanoma): 3.69 µM
GI50 (KM12 colon): 4 µM
TGI (KM12 colon): > 100 µM
GI50 (SF-539 CNS): 13.7 µM
TGI (SF-539 CNS): 41.2 µM
GI50 (CCRF-CEM leukemia): 3.45 µM
TGI (CCRF-CEM leukemia): 20.2 µM
GI50 (NCI-H23 lung): 75.3 µM
TGI (NCI-H23 lung): > 100 µM
GI50 (MALME-3M melanoma): 10.4 µM
TGI (MALME-3M melanoma): 29.7 µM
GI50 (786-0 renal): 8.47 µM
TGI (786-0 renal): 22.2 µM
GI50 (UO-31 renal): 12.8 µM
TGI (UO-31 renal): 64.8 µM
GI50 (MDA-MB-231 breast): 5.28 µM
TGI (MDA-MB-231 breast): 24.5 µM
GI50 (HOP-62 NSCLC): 62.2 µM
TGI (HOP-62 NSCLC): > 100 µM
GI50 (M14 melanoma): 12.3 µM
TGI (M14 melanoma): 27.4 µM
GI50 (UACC-62 melanoma): 17.7 µM
TGI (UACC-62 melanoma): 72.3 µM
GI50 (MCF7 breast): 4.11 µM
TGI (MCF7 breast): 22.7 µM
GI50 (COLO 205 colon): 55.5 µM
TGI (COLO 205 colon): > 100 µM
GI50 (NCI-H226 lung): 24.3 µM
TGI (NCI-H226 lung): > 100 µM
GI50 (HOP-92 NSCLC): 20.4 µM
TGI (HOP-92 NSCLC): > 100 µM
GI50 (SR leukemia): 4.36 µM
TGI (SR leukemia): > 100 µM
GI50 (UACC-257 melanoma): 23.3 µM
TGI (UACC-257 melanoma): > 100 µM
GI50 (SK-OV-3 ovarian): > 100 µM
TGI (SK-OV-3 ovarian): > 100 µM
GI50 (A549 NSCLC): 16.4 µM
TGI (A549 NSCLC): > 100 µM
GI50 (HT29 colon): 5.04 µM
TGI (HT29 colon): 24.4 µM
GI50 (HCC-2998 colon): 4.2 µM
TGI (HCC-2998 colon): 20.3 µM
GI50 (A498 renal): > 100 µM
TGI (A498 renal): > 100 µM
GI50 (BT-549 breast): > 100 µM
TGI (BT-549 breast): > 100 µM
GI50 (NCI-H460 lung): 6.63 µM
TGI (NCI-H460 lung): 24.8 µM
GI50 (MDA-MB-435): 21.6 µM
TGI (MDA-MB-435): > 100 µM
GI50 (TK-10 renal): 26.5 µM
TGI (TK-10 renal): > 100 µM
GI50 (RXF 393 renal): 2.63 µM
TGI (RXF 393 renal): 8.47 µM
GI50 (ACHN renal): 6.52 µM
TGI (ACHN renal): 43.4 µM
GI50 (NCI-H522 lung): 5.77 µM
TGI (NCI-H522 lung): 40.4 µM
GI50 (MOLT-4 leukemia): 2.42 µM
TGI (MOLT-4 leukemia): 21.6 µM
GI50 (MDA-MB-468 breast): 4.64 µM
TGI (MDA-MB-468 breast): 18.5 µM
GI50 (T-47D breast): 34 µM
TGI (T-47D breast): > 100 µM
GI50 (HS 578T breast): > 100 µM
TGI (HS 578T breast): > 100 µM
GI50 (CAKI-1 renal): 6.43 µM
TGI (CAKI-1 renal): > 100 µM
GI50 (RPMI-8226 leukemia): 5.67 µM
TGI (RPMI-8226 leukemia): 48.5 µM
GI50 (SF-295 CNS): 9.9 µM
TGI (SF-295 CNS): 39.1 µM
GI50 (HCT-15 colon): 2.55 µM
TGI (HCT-15 colon): 10.7 µM
GI50 (SK-MEL-2 melanoma): 26.4 µM
TGI (SK-MEL-2 melanoma): > 100 µM
GI50 (OVCAR-8 ovarian): 16.8 µM
TGI (OVCAR-8 ovarian): 69.6 µM
GI50 (SNB-19 CNS): 37.7 µM
TGI (SNB-19 CNS): > 100 µM
GI50 (SK-MEL-28 melanoma): 14.5 µM
TGI (SK-MEL-28 melanoma): 30.2 µM
GI50 (K-562 leukemia): 4.09 µM
TGI (K-562 leukemia): 50.2 µM
GI50 (SF-268 CNS): > 100 µM
TGI (SF-268 CNS): > 100 µM
GI50 (OVCAR-4 ovarian): 22.5 µM
TGI (OVCAR-4 ovarian): > 100 µM
GI50 (U251 CNS): 5.72 µM
TGI (U251 CNS): 28.9 µM
GI50 (OVCAR-3 ovarian): > 100 µM
TGI (OVCAR-3 ovarian): > 100 µM
GI50 (HL-60(TB) leukemia): 9.35 µM
TGI (HL-60(TB) leukemia): > 100 µM
GI50 (HCT-116 colon): 32.2 µM
TGI (HCT-116 colon): > 100 µM
GI50 (SW-620 colon): 6.93 µM
TGI (SW-620 colon): 21.9 µM
GI50 (OVCAR-5 ovarian): 21.9 µM
TGI (OVCAR-5 ovarian): > 100 µM
GI50 (SN12C renal): > 100 µM
TGI (SN12C renal): > 100 µM
GI50 (SK-MEL-5 melanoma): 31.3 µM
TGI (SK-MEL-5 melanoma): > 100 µM
